According to US20260191189A1, “CALCIFEROLS TO REDUCE ENVIRONMENTAL IMPACT OF RODENTICIDES” (priority 2021, published 2026):

Key:
[1] = Sprague-Dawley rats, oral administration of 3.0 mg/kg; cited from earlier work
[2] = cited from earlier work
rats and mice = settings: cited from earlier work
rats (Rattus norvegicus) = assay: Lab test of stop feeding effect (choice feeding test); format: in vivo; settings: 100 mg/kg of calciferol
From the text: A lab trial was set up to test the stop-feeding effect induced by calciferol-containing bait in the absence of an anticoagulant rodenticide. Three groups (Group control, Group a, and Group b) of ten rats (Rattus norvegicus) each were subjected to the experiment. The control group and Group a consisted of male rats; Group b consisted of female rats. The groups were kept in three connected pens (20 cm×60 cm) with shelter, saw-dust, water and feed ad libitum under standard laboratory conditions. The rats acclimatized in the test setup for ten days, with standard lab chew ad libitum.
The test-bait formulation was a paste-bait, based on vegetable fat and cereal flour, and contained cholecalciferol at 100 mg/kg. During the choice feeding test, the rats of both treatment groups (a and b) received the cholecalciferol-containing bait and the challenge diet (standard rat chew; Höveler, Germany) ad libitum. The control group received the same bait as the treatment groups but without cholecalciferol, and the challenge diet. Consumption of bait and challenge diet was recorded in all groups daily for 14 days. The daily bait consumption results are depicted in FIG. 1.
FIG. 1 depicts the daily consumption of bait (grams) in the laboratory study of Experiment 1, where three groups of rats (n=10 each) were given a choice between standard lab diet, and bait with or without cholecalciferol (100 mg/kg). […]

rats or mice = settings: in rodenticide bait, alone or combined with warfarin; cited from earlier work

O=c1oc2ccccc2c(O)c1[C@@H]1Cc2ccccc2[C@H](c2ccc(-c3ccc(Br)cc3)cc2)C1 (single isomer, unassigned) [cis-isomer of brodifacoum]
liver half-life [1]: 120.82 h

O=c1oc2ccccc2c(O)c1C(CC(O)c1ccc(-c2ccc(Br)cc2)cc1)c1ccccc1 (single isomer, unassigned) [cis-isomer of bromadiolone]
liver half-life [1]: 26.89 h

O=c1oc2ccccc2c(O)c1C1CC(c2ccc(-c3ccc(Br)cc3)cc2)Cc2ccccc21 (stereo not shown) [brodifacoum, 3-[3-[4-(4-bromophenyl)phenyl]-1,2,3,4-tetrahydronaphthalen-1-yl]-4-hydroxychromen-2-one]
half-life in the liver ([2]; liver): 307.4 days | plasma half-life [2]: 91.7 days

O=c1oc2ccccc2c(O)c1[C@@H]1C[C@@H](c2ccc(OCc3ccc(C(F)(F)F)cc3)cc2)Cc2ccccc21 (single isomer, unassigned) [cis-isomer of flocoumafen]
liver half-life [1]: 76.73 h

O=c1oc2ccccc2c(O)c1C1CCCc2ccccc21 (stereo not shown) [coumatetralyl, 4-Hydroxy-3-(1,2,3,4-tetrahydro-1-naphthyl) coumarin]
plasma half-life [2]: 0.52 days

O=c1oc2ccccc2c(O)c1C1CC(c2ccc(-c3ccc(Br)cc3)cc2)Cc2ccccc21 (single isomer, unassigned) [trans-isomer of brodifacoum]
liver half-life [1]: 68.73 h

C=C1CC[C@H](O)C/C1=C/C=C1\CCC[C@]2(C)[C@@H]([C@H](C)/C=C/[C@H](C)C(C)C)CC[C@@H]12 [calciferol]
acute oral LD50 (rats and mice): 30 to 100 mg/kg | stop feeding effect (rats (Rattus norvegicus)): significant stop feeding effect within two days | minimum concentration likely to give good results in the field (rats or mice): 0.1%
